PubChem BioAssay AID1963858 (Molecular Pharmacology Branch, DTP, NCI, 2024)

System: HOP-62 multicell spheroids with HUVEC/MSC, viability
Assay: Anticancer human tumor HOP-62 cell line growth inhibition [KRAS2];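 further: viability read after a week of compound exposure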;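 on viability, T/C: 100% = DMSO vehicle-treated spheroids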
Conditions: for IC50: curve of first compound; for viability, T/C: stronger effect = lower value
Outline: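 KRAS-mutant tumor cells were grown as spheroids with HUVEC endothelial cells and human MSCs as stroma. Targeted agents were tested alone and with KRAS pathway inhibitors. Doses started at or near clinical Cmax, or 10 microM, descending half-log.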

[1] = second compound 0.1 µM, first compound 0.0316 µM
[2] = second compound 0.1 µM, first compound 0.1 µM
[3] = second compound 0.1 µM, first compound 0.316 µM
[4] = second compound 0.1 µM, first compound 1 µM
[5] = second compound 0.1 µM, first compound 3.16 µM
[6] = second compound 0.1 µM, first compound 10 µM
[7] = second compound 0.316 µM, first compound 0.0316 µM
[8] = second compound 0.316 µM, first compound 0.1 µM
[9] = second compound 0.316 µM, first compound 0.316 µM
[10] = second compound 0.316 µM, first compound 1 µM
[11] = second compound 0.316 µM, first compound 3.16 µM
[12] = second compound 0.316 µM, first compound 10 µM
[13] = second compound 1 µM, first compound 0.0316 µM
[14] = second compound 1 µM, first compound 0.1 µM
[15] = second compound 1 µM, first compound 0.316 µM
[16] = second compound 1 µM, first compound 1 µM
[17] = second compound 1 µM, first compound 3.16 µM
[18] = second compound 1 µM, first compound 10 µM
[19] = second compound 3.16 µM, first compound 0.0316 µM
[20] = second compound 3.16 µM, first compound 0.1 µM
[21] = second compound 3.16 µM, first compound 0.316 µM
[22] = second compound 3.16 µM, first compound 1 µM
[23] = second compound 3.16 µM, first compound 3.16 µM
[24] = second compound 3.16 µM, first compound 10 µM
[25] = second compound 10 µM, first compound 0.0316 µM
[26] = second compound 10 µM, first compound 0.1 µM
[27] = second compound 10 µM, first compound 0.316 µM
[28] = second compound 10 µM, first compound 1 µM
[29] = second compound 10 µM, first compound 3.16 µM
[30] = second compound 10 µM, first compound 10 µM
[31] = second compound 0.1 µM, first compound 0.01 µM
[32] = second compound 0.316 µM, first compound 0.01 µM
[33] = second compound 1 µM, first compound 0.01 µM
[34] = second compound 3.16 µM, first compound 0.01 µM
[35] = second compound 10 µM, first compound 0.01 µM

Row | Structure (SMILES) | IC50 (second compound 0.1 µM) [µM] | IC50 (second compound 0.316 µM) [µM] | IC50 (second compound 1 µM) [µM] | IC50 (second compound 3.16 µM) [µM] | IC50 (second compound 10 µM) [µM] | viability, T/C [1] [%] | viability, T/C [2] [%] | viability, T/C [3] [%] | viability, T/C [4] [%] | viability, T/C [7] [%] | viability, T/C [8] [%] | viability, T/C [9] [%] | viability, T/C [10] [%] | viability, T/C [13] [%] | viability, T/C [14] [%] | viability, T/C [15] [%] | viability, T/C [16] [%] | viability, T/C [19] [%] | viability, T/C [20] [%] | viability, T/C [21] [%] | further results
1 | CC(C)NCC(C(=O)N1CCN(c2ncnc3c2C(C)CC3O)CC1)c1ccc(Cl)cc1 (stereo not given) + CC1OCC2(CCN(c3cnc(Sc4ccnc(N)c4Cl)c(N)n3)CC2)C1N | 0.389 | 0.235 | 0.0521 | < 0.0316 | < 0.0316 | 88.7 | 81.9 | 53.5 | 27.6 | 65.7 | 66.2 | 43.4 | 21.7 | 55.9 | 42.3 | 20.5 | 7.92 | 37.6 | 27.2 | 13 | viability, T/C [5]: 11.3%; viability, T/C [6]: 7.62%; viability, T/C [11]: 8.04%; viability, T/C [12]: 5.81%; viability, T/C [17]: 6.64%; viability, T/C [18]: 4.61%; viability, T/C [22]: 7.62%; viability, T/C [23]: 4.7%; viability, T/C [24]: 3.86%; viability, T/C [25]: 25.7%; viability, T/C [26]: 20.4%; viability, T/C [27]: 14.5%; viability, T/C [28]: 7.49%; viability, T/C [29]: 4.67%; viability, T/C [30]: 3.48%
2 | CC1COCCN1c1cc(-c2ccnn2C)c2ccnc(-c3ccn[nH]3)c2n1 (stereo not given) + CC1OCC2(CCN(c3cnc(Sc4ccnc(N)c4Cl)c(N)n3)CC2)C1N | 0.0398 | 0.0358 | 0.0218 | 0.0146 | < 0.01 | 56.7 | 23 | 12.7 | 11.5 | 53.2 | 23.8 | 14 | 11.9 | 37 | 20.2 | 13.4 | 10.1 | 30.6 | 18.1 | 11.7 | viability, T/C [31]: 94.7%; viability, T/C [5]: 13.7%; viability, T/C [32]: 87.3%; viability, T/C [11]: 11.9%; viability, T/C [33]: 76.6%; viability, T/C [17]: 8.68%; viability, T/C [34]: 59.4%; viability, T/C [22]: 9.08%; viability, T/C [23]: 9.24%; viability, T/C [35]: 46.9%; viability, T/C [25]: 26.4%; viability, T/C [26]: 16.8%; viability, T/C [27]: 13.6%; viability, T/C [28]: 11.2%; viability, T/C [29]: 9.36%
3 | CCN1CCN(Cc2ccc(Nc3ncc(F)c(-c4cc(F)c5nc(C)n(C(C)C)c5c4)n3)nc2)CC1 + CC1OCC2(CCN(c3cnc(Sc4ccnc(N)c4Cl)c(N)n3)CC2)C1N | > 1 | 0.37 | 0.0675 | < 0.00316 | < 0.00316 | 87.1 | 83.7 | 75.4 | 50.8 | 73.1 | 73 | 49 | 37.2 | 53 | 42.1 | 42.7 | 25.9 | 33.5 | 27 | 25.7 | viability, T/C (second compound 0.1 µM, first compound 0.00316 µM): 104%; viability, T/C [31]: 93.8%; viability, T/C (second compound 0.316 µM, first compound 0.00316 µM): 96.8%; viability, T/C [32]: 76.6%; viability, T/C (second compound 1 µM, first compound 0.00316 µM): 65.3%; viability, T/C [33]: 73.2%; viability, T/C (second compound 3.16 µM, first compound 0.00316 µM): 33.7%; viability, T/C [34]: 41.3%; viability, T/C [22]: 20.1%; viability, T/C (second compound 10 µM, first compound 0.00316 µM): 32.6%; viability, T/C [35]: 27.4%; viability, T/C [25]: 23.4%; viability, T/C [26]: 21.5%; viability, T/C [27]: 23.9%; viability, T/C [28]: 13.9%
4 | CCNC(=O)CC1N=C(c2ccc(Cl)cc2)c2cc(OC)ccc2-n2c(C)nnc21 (stereo not given) + CC1OCC2(CCN(c3cnc(Sc4ccnc(N)c4Cl)c(N)n3)CC2)C1N | 0.25 | 0.2 | 0.136 | 0.0508 | < 0.0316 | 103 | 74.5 | 45.2 | 27.6 | 96.2 | 65.5 | 40.9 | 25.1 | 75.9 | 55.6 | 34.5 | 19.8 | 60 | 35.5 | 25.9 | viability, T/C [5]: 28.6%; viability, T/C [6]: 28.1%; viability, T/C [11]: 24.3%; viability, T/C [12]: 23.6%; viability, T/C [17]: 22.1%; viability, T/C [18]: 19.7%; viability, T/C [22]: 21.2%; viability, T/C [23]: 16.1%; viability, T/C [24]: 15.3%; viability, T/C [25]: 32.4%; viability, T/C [26]: 21.7%; viability, T/C [27]: 18.6%; viability, T/C [28]: 11.5%; viability, T/C [29]: 11.7%; viability, T/C [30]: 9.82%
5 | Cn1nccc1Nc1nccc(-c2cc3c(s2)C(C)(C)N(CCN2CCOCC2)C3=O)n1 + CC1OCC2(CCN(c3cnc(Sc4ccnc(N)c4Cl)c(N)n3)CC2)C1N | 0.803 | 0.331 | 0.0978 | < 0.0316 | < 0.0316 | 94.3 | 85.4 | 70 | 48.6 | 85.2 | 71.6 | 51.8 | 30.8 | 62.9 | 48.4 | 36 | 21.2 | 40.2 | 35.4 | 31.9 | viability, T/C [5]: 21.4%; viability, T/C [6]: 24.1%; viability, T/C [11]: 21.8%; viability, T/C [12]: 20.5%; viability, T/C [17]: 18.1%; viability, T/C [18]: 18.7%; viability, T/C [22]: 15.7%; viability, T/C [23]: 14.9%; viability, T/C [24]: 16.6%; viability, T/C [25]: 29.6%; viability, T/C [26]: 35.7%; viability, T/C [27]: 18.7%; viability, T/C [28]: 17.1%; viability, T/C [29]: 13.7%; viability, T/C [30]: 11.9%
6 | CC(=O)OC12COC1CC(O)C1(C)C(=O)C(O)C3=C(C)C(OC(=O)C(O)C(NC(=O)OC(C)(C)C)c4ccccc4)CC(O)(C(OC(=O)c4ccccc4)C21)C3(C)C (stereo not given) + CNCc1ccccc1-c1csc(C(C)Nc2nc(C)nc3cc(OC)c(OC)cc23)c1 | < 0.01 | < 0.01 | < 0.01 | < 0.01 | < 0.01 | 35.2 | 38.1 | 35 | 34.9 | 33 | 38.1 | 31.7 | 29.2 | 28.4 | 28 | 33.6 | 39.8 | 0.11 | 0.07 | 0.09 | viability, T/C [31]: 36.4%; viability, T/C [5]: 45.7%; viability, T/C [32]: 34.3%; viability, T/C [11]: 37%; viability, T/C [33]: 34%; viability, T/C [17]: 42.4%; viability, T/C [34]: 26.4%; viability, T/C [22]: 0.11%; viability, T/C [23]: 34.9%; viability, T/C [35]: 3.3%; viability, T/C [25]: 1.3%; viability, T/C [26]: 0.1%; viability, T/C [27]: 0.14%; viability, T/C [28]: 30.4%; viability, T/C [29]: 2.73%
